Active and inactive are the calls of the source. How the calls were made is not given here.
Target: Chaperone protein DnaK (Escherichia coli (strain K12)) (UniProt P0A6Y8)
Experiment: binders of DnaK substrate-binding domain, biophysical, NMR, chaperone (AID 1033)
Conditions: Purified DnaK SBD, NMR ligand binding

Sequence of Chaperone protein DnaK (Escherichia coli (strain K12)) (P0A6Y8 whole entry, looked up, the tested form may be a part): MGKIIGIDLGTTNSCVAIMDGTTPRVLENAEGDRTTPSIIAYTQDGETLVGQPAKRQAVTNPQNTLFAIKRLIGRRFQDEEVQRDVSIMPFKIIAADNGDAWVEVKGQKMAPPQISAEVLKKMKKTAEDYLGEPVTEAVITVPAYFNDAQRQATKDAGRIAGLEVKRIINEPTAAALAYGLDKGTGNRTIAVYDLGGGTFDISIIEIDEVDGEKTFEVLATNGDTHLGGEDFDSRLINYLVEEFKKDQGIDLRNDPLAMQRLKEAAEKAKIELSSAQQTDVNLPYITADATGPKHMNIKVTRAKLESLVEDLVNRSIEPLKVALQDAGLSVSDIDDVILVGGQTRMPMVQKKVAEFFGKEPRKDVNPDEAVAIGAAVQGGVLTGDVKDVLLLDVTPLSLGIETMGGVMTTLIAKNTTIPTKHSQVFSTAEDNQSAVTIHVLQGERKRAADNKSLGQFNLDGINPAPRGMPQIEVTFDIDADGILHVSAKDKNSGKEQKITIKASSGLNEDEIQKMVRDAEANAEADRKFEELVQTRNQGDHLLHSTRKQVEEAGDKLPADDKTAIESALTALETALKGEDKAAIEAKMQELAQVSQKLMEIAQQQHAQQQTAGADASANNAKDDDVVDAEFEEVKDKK

Row | Structure (SMILES) | Kd
1 | COc1ncccc1N | > 4 mM (inactive)
2 | Nc1ccc(S(=O)(=O)N2CCOCC2)cc1 | > 4 mM (inactive)
3 | O=C1CNc2cc(C(=O)O)ccc2N1 | > 4 mM (inactive)
4 | Nc1ccc(-n2cncn2)cc1 | > 4 mM (inactive)
5 | O=C(O)c1cc2ccccc2s1 | > 4 mM (inactive)
6 | CC(=O)c1c(C)nc(-c2ccc(F)cc2)n1O | > 4 mM (inactive)
7 | CSc1n[nH]c(NCc2cccs2)n1 | > 4 mM (inactive)
8 | NCc1ccc2sccc2c1 | > 4 mM (inactive)
9 | NC(=O)C1CCN(C2CC(=O)NC2=O)CC1 (stereo unspecified) | > 4 mM (inactive)
10 | Cc1cc(O)cc(O)c1C(=O)O | > 4 mM (inactive)
11 | NC(=O)c1ccsc1NC(=O)c1ccco1 | > 4 mM (inactive)
12 | Nc1ccccc1C(=O)CC(N)C(=O)O (stereo unspecified) | > 4 mM (inactive)
13 | CCn1c(-c2c[nH]c3ccccc23)n[nH]c1=S | > 4 mM (inactive)
14 | NC(=O)/C=C/C(=O)Nc1ccccc1 | > 4 mM (inactive)
15 | Cc1cc(O)c(C=O)c(O)c1C(=O)O | > 4 mM (inactive)
16 | O=C(O)CCCCCCCC(=O)O | > 4 mM (inactive)
17 | Cc1ccc(-c2c(C)n([O-])c3c([n+]2=O)CCCC3)o1 | > 4 mM (inactive)
18 | O=C(CSC1=NCCS1)N1CCc2ccccc21 | > 4 mM (inactive)
19 | O=C(O)c1ccc(N2CCOCC2)nc1 | > 4 mM (inactive)
20 | O=C(Cc1cccs1)Nc1ccon1 | > 4 mM (inactive)
21 | Cn1nnc2cc(CN)ccc21 | > 4 mM (inactive)

Row | Structure (SMILES) | Kd
22 | Cc1nnc(NC(=O)C(C)Sc2nncn2C)s1 (stereo unspecified) | > 4 mM (inactive)
23 | O=C(NC1=NCCS1)c1ccc2snnc2c1 | > 4 mM (inactive)
24 | CC(=O)Nc1ccc(NC(=O)/C=C\C(=O)O)cc1 | > 4 mM (inactive)
25 | CN1C(=O)c2ccc(N=C3NC(=O)CS3)cc2C1=O | > 4 mM (inactive)
26 | Cc1cc(NC(=O)c2ccc3c(c2)OCO3)no1 | > 4 mM (inactive)
27 | Cc1nc(-c2cc(C(=O)O)no2)cs1 | > 4 mM (inactive)
28 | CC(=O)Nc1cccs1 | > 4 mM (inactive)
29 | OCc1ccc2nonc2c1 | > 4 mM (inactive)
30 | O=c1[nH]cc(CN2CCOCC2)c(=O)[nH]1 | > 4 mM (inactive)
31 | O=C1CNC(=O)/C1=C/c1ccc(O)cc1 | > 4 mM (inactive)
32 | O=C(CS(=O)(=O)c1ccccc1)N1CCCCCC1 | > 4 mM (inactive)
33 | O=C(Nc1c[nH]c(=O)[nH]c1=O)c1ccccc1F | > 4 mM (inactive)
34 | CC1=NN(c2ccc(N)cc2)C(=O)C1 | > 4 mM (inactive)
35 | c1ccn(Cc2ccncc2)c1 | > 4 mM (inactive)
36 | CSc1nc2nccc(N)n2n1 | > 4 mM (inactive)
37 | NC(=O)c1ccc(-c2csnn2)cc1 | > 4 mM (inactive)
38 | Cc1cccc(NC(=O)Nc2cc(C)on2)c1 | > 4 mM (inactive)
39 | S=c1nc(Cc2ccccc2)[nH][nH]1 | > 4 mM (inactive)
40 | O=C1CSC(=Nc2ccc(Cl)cc2)N1 | > 4 mM (inactive)
41 | COc1ccc(-c2coc3c(O)c(OC)ccc3c2=O)cc1 | > 4 mM (inactive)
42 | CCOC(=O)CC1NCCNC1=O (stereo unspecified) | > 4 mM (inactive)

Row | Structure (SMILES) | Kd
43 | Cc1nc(SCC#N)c2c3c(sc2n1)CCC3 | > 4 mM (inactive)
44 | O=C1CCC(=O)N1CNc1ccccc1 | > 4 mM (inactive)
45 | CC(C)Oc1ccc(C2CC(=O)NNC2=O)cc1 (stereo unspecified) | > 4 mM (inactive)
46 | O=C(O)C1CSC(c2ccc(Cl)cc2)N1 (stereo unspecified) | > 4 mM (inactive)
47 | O=c1ccc(=O)n(CN2CCc3ccccc3C2)[nH]1 | > 4 mM (inactive)
48 | O=C(O)c1ccc(-n2cccc2)cc1 | > 4 mM (inactive)
49 | CCCCn1c(S(=O)(=O)O)nc2ccccc21 | > 4 mM (inactive)
50 | COc1c(CC=C(C)C)c2c(c3oc(=O)c(-c4ccc(O)cc4)c(O)c13)C=CC(C)(C)O2 | > 4 mM (inactive)
51 | N#Cc1c[nH]n2c(=O)cc(Cc3ccccc3)nc12 | > 4 mM (inactive)
52 | Cc1c(C(=O)NCc2ccccn2)oc2ccccc12 | > 4 mM (inactive)
53 | CC(=O)Oc1c(-c2ccccc2)oc2c(CC=C(C)C)c3c(c(OC(C)=O)c2c1=O)C=CC(C)(C)O3 | > 4 mM (inactive)
54 | Nc1nc(-c2ccc(Cl)cc2)nn1C(=O)c1cccnc1 | > 4 mM (inactive)
55 | O=C(Nc1cccc(Cl)c1)c1cnn2cccnc12 | > 4 mM (inactive)
56 | c1ccc(CCc2nc(-c3cccnc3)no2)cc1 | > 4 mM (inactive)
57 | Cc1cc(O)cc(=O)o1 | > 4 mM (inactive)
58 | COc1ccccc1Nc1nncc(=O)[nH]1 | > 4 mM (inactive)
59 | NC(=O)CCn1ncc2ccccc21 | > 4 mM (inactive)
60 | CSc1ccc(/C=c2\sc3ncnn3c2=O)cc1 | > 4 mM (inactive)
61 | OCc1ccc2c(c1)OCCCO2 | > 4 mM (inactive)

— PubChem BioAssay AID1033 (Sanford-Burnham Center for Chemical Genomics, 2008)
